Results taken from PubChem BioAssay (NCI).
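Exposure lasted 48 hours, with cells grown in 96-well plates and compounds tested at five concentrations. GI50 = concentration required for 50% inhibition of growth. TGI: concentration producing complete growth inhibition.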

How the values were obtained:
Test in all cases: NCI tumour cell line growth inhibition, 48 h
U251 CNS = tested on: U251 CNS
NCI-H226 lung = tested on: NCI-H226 lung
SW-620 colon = tested on: SW-620 colon
RPMI-8226 leukemia = tested on: RPMI-8226 leukemia
COLO 205 colon = tested on: COLO 205 colon
UACC-62 melanoma = tested on: UACC-62 melanoma
SK-MEL-28 melanoma = tested on: SK-MEL-28 melanoma
HL-60(TB) leukemia = tested on: HL-60(TB) leukemia
MDA-MB-231 breast = tested on: MDA-MB-231 breast
UO-31 renal = tested on: UO-31 renal
M14 melanoma = tested on: M14 melanoma
SK-OV-3 ovarian = tested on: SK-OV-3 ovarian
DU-145 prostate = tested on: DU-145 prostate
SF-268 CNS = tested on: SF-268 CNS
MCF7 breast = tested on: MCF7 breast
HOP-92 NSCLC = tested on: HOP-92 NSCLC
HOP-62 NSCLC = tested on: HOP-62 NSCLC
CCRF-CEM leukemia = tested on: CCRF-CEM leukemia
HT29 colon = tested on: HT29 colon
SNB-75 CNS = tested on: SNB-75 CNS
NCI-H460 lung = tested on: NCI-H460 lung
OVCAR-5 ovarian = tested on: OVCAR-5 ovarian
OVCAR-8 ovarian = tested on: OVCAR-8 ovarian
NCI-H522 lung = tested on: NCI-H522 lung
PC-3 prostate = tested on: PC-3 prostate
HS 578T breast = tested on: HS 578T breast
NCI/ADR-RES ovarian = tested on: NCI/ADR-RES ovarian
HCT-116 colon = tested on: HCT-116 colon
SF-539 CNS = tested on: SF-539 CNS
RXF 393 renal = tested on: RXF 393 renal
LOX IMVI melanoma = tested on: LOX IMVI melanoma
A549 NSCLC = tested on: A549 NSCLC
HCT-15 colon = tested on: HCT-15 colon
MOLT-4 leukemia = tested on: MOLT-4 leukemia
ACHN renal = tested on: ACHN renal
IGROV1 ovarian = tested on: IGROV1 ovarian
SF-295 CNS = tested on: SF-295 CNS
TK-10 renal = tested on: TK-10 renal
K-562 leukemia = tested on: K-562 leukemia
MDA-MB-435 = tested on: MDA-MB-435
OVCAR-4 ovarian = tested on: OVCAR-4 ovarian
BT-549 breast = tested on: BT-549 breast
HCC-2998 colon = tested on: HCC-2998 colon
SR leukemia = tested on: SR leukemia
A498 renal = tested on: A498 renal
SN12C renal = tested on: SN12C renal
SK-MEL-2 melanoma = tested on: SK-MEL-2 melanoma
SNB-19 CNS = tested on: SNB-19 CNS
KM12 colon = tested on: KM12 colon
SK-MEL-5 melanoma = tested on: SK-MEL-5 melanoma
T-47D breast = tested on: T-47D breast
786-0 renal = tested on: 786-0 renal
NCI-H23 lung = tested on: NCI-H23 lung
OVCAR-3 ovarian = tested on: OVCAR-3 ovarian
UACC-257 melanoma = tested on: UACC-257 melanoma
CAKI-1 renal = tested on: CAKI-1 renal
EKVX NSCLC = tested on: EKVX NSCLC

SMILES: CC(C)[C@@H]1NC(=O)[C@]2(C)CSC(=N2)c2ccnc(c2)CNC(=O)C[C@@H](/C=C/CCS)OC1=O
- GI50 (U251 CNS): 107 nM
- TGI (U251 CNS): 730 nM
- GI50 (NCI-H226 lung): 458 nM
- TGI (NCI-H226 lung): 12400 nM
- GI50 (SW-620 colon): 448 nM
- TGI (SW-620 colon): 7650 nM
- GI50 (RPMI-8226 leukemia): 1490 nM
- TGI (RPMI-8226 leukemia): > 27700 nM
- GI50 (COLO 205 colon): 717 nM
- TGI (COLO 205 colon): 2410 nM
- GI50 (UACC-62 melanoma): 74.6 nM
- TGI (UACC-62 melanoma): 552 nM
- GI50 (SK-MEL-28 melanoma): 119 nM
- TGI (SK-MEL-28 melanoma): 3460 nM
- GI50 (HL-60(TB) leukemia): 513 nM
- TGI (HL-60(TB) leukemia): > 100000 nM
- GI50 (MDA-MB-231 breast): 472 nM
- TGI (MDA-MB-231 breast): > 100000 nM
- GI50 (UO-31 renal): 1560 nM
- TGI (UO-31 renal): 23100 nM
- GI50 (M14 melanoma): 95.7 nM
- TGI (M14 melanoma): > 100000 nM
- GI50 (SK-OV-3 ovarian): 35.4 nM
- TGI (SK-OV-3 ovarian): 197 nM
- GI50 (DU-145 prostate): 231 nM
- TGI (DU-145 prostate): > 100000 nM
- GI50 (SF-268 CNS): 421 nM
- TGI (SF-268 CNS): > 100000 nM
- GI50 (MCF7 breast): 708 nM
- TGI (MCF7 breast): > 100000 nM
- GI50 (HOP-92 NSCLC): 363 nM
- TGI (HOP-92 NSCLC): 2810 nM
- GI50 (HOP-62 NSCLC): 52.5 nM
- GI50 (CCRF-CEM leukemia): 574 nM
- TGI (CCRF-CEM leukemia): > 100000 nM
- GI50 (HT29 colon): 242 nM
- TGI (HT29 colon): 1570 nM
- GI50 (SNB-75 CNS): 91.2 nM
- TGI (SNB-75 CNS): > 100000 nM
- GI50 (NCI-H460 lung): < 25.3 nM
- TGI (NCI-H460 lung): > 100000 nM
- GI50 (OVCAR-5 ovarian): 156 nM
- TGI (OVCAR-5 ovarian): > 100000 nM
- GI50 (OVCAR-8 ovarian): 128 nM
- TGI (OVCAR-8 ovarian): > 100000 nM
- GI50 (NCI-H522 lung): 249 nM
- TGI (NCI-H522 lung): 5140 nM
- GI50 (PC-3 prostate): 66.9 nM
- TGI (PC-3 prostate): > 100000 nM
- GI50 (HS 578T breast): 40.7 nM
- GI50 (NCI/ADR-RES ovarian): 2460 nM
- TGI (NCI/ADR-RES ovarian): > 61600 nM
- GI50 (HCT-116 colon): 115 nM
- TGI (HCT-116 colon): 1090 nM
- GI50 (SF-539 CNS): 83.2 nM
- TGI (SF-539 CNS): > 65500 nM
- GI50 (RXF 393 renal): 82.8 nM
- TGI (RXF 393 renal): 562 nM
- GI50 (LOX IMVI melanoma): 208 nM
- TGI (LOX IMVI melanoma): 588 nM
- GI50 (A549 NSCLC): 63.5 nM
- TGI (A549 NSCLC): 1330 nM
- GI50 (HCT-15 colon): 9100 nM
- TGI (HCT-15 colon): > 100000 nM
- GI50 (MOLT-4 leukemia): 128 nM
- TGI (MOLT-4 leukemia): > 100000 nM
- GI50 (ACHN renal): 2460 nM
- TGI (ACHN renal): 14900 nM
- GI50 (IGROV1 ovarian): 159 nM
- TGI (IGROV1 ovarian): 2430 nM
- GI50 (SF-295 CNS): 62.3 nM
- TGI (SF-295 CNS): 322 nM
- GI50 (TK-10 renal): 178 nM
- TGI (TK-10 renal): 1640 nM
- GI50 (K-562 leukemia): 637 nM
- TGI (K-562 leukemia): > 100000 nM
- GI50 (MDA-MB-435): 111 nM
- TGI (MDA-MB-435): 6130 nM
- GI50 (OVCAR-4 ovarian): 1410 nM
- TGI (OVCAR-4 ovarian): > 100000 nM
- GI50 (BT-549 breast): 718 nM
- TGI (BT-549 breast): > 100000 nM
- GI50 (HCC-2998 colon): 173 nM
- TGI (HCC-2998 colon): 869 nM
- GI50 (SR leukemia): 64.1 nM
- TGI (SR leukemia): > 100000 nM
- GI50 (A498 renal): 32.3 nM
- TGI (A498 renal): 254 nM
- GI50 (SN12C renal): 711 nM
- TGI (SN12C renal): > 100000 nM
- GI50 (SK-MEL-2 melanoma): 84.2 nM
- TGI (SK-MEL-2 melanoma): 516 nM
- GI50 (SNB-19 CNS): 283 nM
- TGI (SNB-19 CNS): > 39400 nM
- GI50 (KM12 colon): 85.7 nM
- TGI (KM12 colon): > 86100 nM
- GI50 (SK-MEL-5 melanoma): 71.5 nM
- TGI (SK-MEL-5 melanoma): 323 nM
- GI50 (T-47D breast): 1730 nM
- TGI (T-47D breast): 6910 nM
- GI50 (786-0 renal): 911 nM
- TGI (786-0 renal): > 28000 nM
- GI50 (NCI-H23 lung): 303 nM
- TGI (NCI-H23 lung): > 31400 nM
- GI50 (OVCAR-3 ovarian): 833 nM
- TGI (OVCAR-3 ovarian): 6870 nM
- GI50 (UACC-257 melanoma): 37.6 nM
- TGI (UACC-257 melanoma): 526 nM
- GI50 (CAKI-1 renal): 2860 nM
- TGI (CAKI-1 renal): 15600 nM
- GI50 (EKVX NSCLC): 234 nM
- TGI (EKVX NSCLC): > 100000 nM
